Results reported in patent US20090181369A1, “Methods for the Treatment of Disease” (priority 2005, published 2009).

Key:
[1] = test system: BaF3 cells expressing FNTB P152S; assay: cells; conditions: Mus musculus, BaF3, 336 h, read-out: Cellular IC50
FTase, β subunit W106R = FTase, β subunit W106R (Homo sapiens, UniProt P49356, W106R); conditions: all drug concentrations
[2] = test system: BaF3 cells expressing FNTB C95R; assay: soft agar colony assay (cellular IC50); conditions: Mus musculus, BaF3, 336 h, read-out: Cellular IC50
[3] = test system: BaF3 cells expressing wild-type FNTB; assay: cells; conditions: Mus musculus, BaF3, 336 h, read-out: Cellular IC50
[4] = test system: BaF3 cells expressing FNTB W106R; assay: soft agar colony assay (cellular IC50); conditions: Mus musculus, BaF3, 336 h, read-out: Cellular IC50
[5] = test system: BaF3 cells expressing FNTB G241E; assay: cells; conditions: Mus musculus, BaF3, 336 h, read-out: Cellular IC50
[6] = patients, reported (ref. 8); cited from earlier work
[7] = test system: chronic myeloid leukemia (CML); conditions: chronic phase CML patients; cited from earlier work

Structure (SMILES) | IC50 [1] [nM] | HDJ2 farnesylation by western blot (FTase, β subunit W106R) [%] | IC50 [2] [nM] | IC50 [3] [nM] | IC50 [4] [nM] | IC50 [5] [nM] | trough plasma concentrations [6] [µM] | response rate [7]
NC(=O)N1CCC(CC(=O)N2CCC([C@H]3c4ncc(Br)cc4CCc4cc(Cl)cc(Br)c43)CC2)CC1 [Lonafarnib, (+)-4-[2-[4-(8-Chloro-3,10-dibromo-6,11-dihydro-5H-benzo[5,6]cyclohepta[1,2-b]-pyridin-11(R)-yl)-1-piperidinyl]-2-oxo-ethyl]-1-piperidinecarboxamide] | 300 | 100 | 1800 | 90 | > 10000 | 600 | 1.5 | –
Cc1ccc(NC(=O)c2ccc(CN3CCN(C)CC3)cc2)cc1Nc1nccc(-c2cccnc2)n1 [imatinib] | – | – | – | – | – | – | – | over 90%
